Reference: the kinase profiling compilation of Christmann-Franck et al. (2016)

Assays:
Assay in all cases: KINOMEscan competition binding
Settings in all cases: compound 10.0 µM
[1] = molecular target: PRKCQ (human) (UniProt Q04759)
[2] = molecular target: DYRK1A (human) (UniProt Q13627)
[3] = molecular target: RIOK2 (human) (UniProt Q9BVS4)
[4] = molecular target: PIK3C2B (human) (UniProt O00750)
[5] = molecular target: KDR (human) (UniProt P35968)
[6] = molecular target: PTK6 (human) (UniProt Q13882)
[7] = molecular target: MELK (human) (UniProt Q14680)
[8] = molecular target: NEK7 (human) (UniProt Q8TDX7)
[9] = molecular target: CDK4 CCND3 (human) (UniProt P11802+P30281)
[10] = molecular target: ANKK1 (human) (UniProt Q8NFD2)
[11] = molecular target: CAMK2G (human) (UniProt Q13555)
[12] = molecular target: NEK9 (human) (UniProt Q8TD19)
[13] = molecular target: DMPK (human) (UniProt Q09013)
[14] = molecular target: PIK3CA (human) (UniProt P42336)
[15] = molecular target: ITK (human) (UniProt Q08881)
[16] = molecular target: MAP4K4 (human) (UniProt O95819)
[17] = molecular target: RPS6KA4 KD1 (human) (UniProt O75676)
[18] = molecular target: PIP4K2B (human) (UniProt P78356)
[19] = molecular target: RPS6KA2 KD1 (human) (UniProt Q15349)
[20] = molecular target: DAPK1 (human) (UniProt P53355)
[21] = molecular target: CDC42BPG (human) (UniProt Q6DT37)
[22] = molecular target: NEK2 (human) (UniProt P51955)
[23] = molecular target: CDKL1 (human) (UniProt Q00532)
[24] = molecular target: NTRK2 (human) (UniProt Q16620)
[25] = molecular target: STK4 (human) (UniProt Q13043)
[26] = molecular target: PAK3 (human) (UniProt O75914)
[27] = molecular target: CAMKK2 (human) (UniProt Q96RR4)
[28] = molecular target: AKT2 (human) (UniProt P31751)
[29] = molecular target: LATS1 (human) (UniProt O95835)
[30] = molecular target: PLK3 (human) (UniProt Q9H4B4)
[31] = molecular target: CSNK1G1 (human) (UniProt Q9HCP0)
[32] = molecular target: MAP3K10 (human) (UniProt Q02779)
[33] = molecular target: CDK17 (human) (UniProt Q00537)
[34] = molecular target: EPHA5 (human) (UniProt P54756)
[35] = molecular target: BRSK2 (human) (UniProt Q8IWQ3)
[36] = molecular target: RPS6KA3 KD1 (human) (UniProt P51812)
[37] = molecular target: TAOK1 (human) (UniProt Q7L7X3)
[38] = molecular target: RPS6KA5 KD1 (human) (UniProt O75582)
[39] = molecular target: VRK2 (human) (UniProt Q86Y07)
[40] = molecular target: CASK (human) (UniProt O14936)

Chain of VRK2 (human) (Q86Y07 whole entry, looked up): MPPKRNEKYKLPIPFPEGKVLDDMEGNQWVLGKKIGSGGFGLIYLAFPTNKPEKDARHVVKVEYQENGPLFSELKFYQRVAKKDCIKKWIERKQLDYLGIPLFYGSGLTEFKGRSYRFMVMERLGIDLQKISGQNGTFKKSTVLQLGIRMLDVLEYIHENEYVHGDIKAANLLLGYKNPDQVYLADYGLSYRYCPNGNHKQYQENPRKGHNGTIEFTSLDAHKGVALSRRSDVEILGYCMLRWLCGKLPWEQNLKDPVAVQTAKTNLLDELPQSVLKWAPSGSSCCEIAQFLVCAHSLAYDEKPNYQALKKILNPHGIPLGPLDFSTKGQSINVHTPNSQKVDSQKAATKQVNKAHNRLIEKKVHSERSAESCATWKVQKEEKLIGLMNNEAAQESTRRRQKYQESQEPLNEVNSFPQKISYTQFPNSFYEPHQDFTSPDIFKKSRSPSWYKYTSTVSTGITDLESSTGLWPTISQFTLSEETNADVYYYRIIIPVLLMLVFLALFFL
Chain of NEK7 (human) (Q8TDX7 whole entry, looked up): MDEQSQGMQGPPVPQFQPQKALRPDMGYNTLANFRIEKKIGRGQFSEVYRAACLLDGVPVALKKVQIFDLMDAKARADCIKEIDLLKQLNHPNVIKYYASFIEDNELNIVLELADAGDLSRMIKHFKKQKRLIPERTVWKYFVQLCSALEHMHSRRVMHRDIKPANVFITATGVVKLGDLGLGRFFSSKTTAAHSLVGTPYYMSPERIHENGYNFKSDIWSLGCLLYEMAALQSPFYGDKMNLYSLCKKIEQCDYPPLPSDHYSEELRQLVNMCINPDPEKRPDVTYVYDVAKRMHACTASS
Chain of PLK3 (human) (Q9H4B4 whole entry, looked up): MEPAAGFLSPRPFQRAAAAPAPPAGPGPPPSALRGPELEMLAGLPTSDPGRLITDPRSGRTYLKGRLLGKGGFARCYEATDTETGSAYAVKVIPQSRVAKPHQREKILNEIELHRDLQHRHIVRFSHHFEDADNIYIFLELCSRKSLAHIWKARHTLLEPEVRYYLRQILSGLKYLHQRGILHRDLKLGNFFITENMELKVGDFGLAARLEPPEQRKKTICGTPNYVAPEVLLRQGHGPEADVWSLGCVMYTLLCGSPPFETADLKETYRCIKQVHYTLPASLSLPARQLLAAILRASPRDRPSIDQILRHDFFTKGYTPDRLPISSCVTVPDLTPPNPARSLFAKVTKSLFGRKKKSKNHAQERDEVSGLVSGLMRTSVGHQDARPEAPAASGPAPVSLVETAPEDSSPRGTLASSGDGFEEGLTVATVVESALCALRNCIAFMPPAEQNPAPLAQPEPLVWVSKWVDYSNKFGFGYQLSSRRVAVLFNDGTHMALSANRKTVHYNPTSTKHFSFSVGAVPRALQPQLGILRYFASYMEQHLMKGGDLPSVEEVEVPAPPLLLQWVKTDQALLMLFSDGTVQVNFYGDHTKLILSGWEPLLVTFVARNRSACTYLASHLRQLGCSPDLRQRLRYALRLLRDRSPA
Chain of KDR (human) (P35968 whole entry, looked up): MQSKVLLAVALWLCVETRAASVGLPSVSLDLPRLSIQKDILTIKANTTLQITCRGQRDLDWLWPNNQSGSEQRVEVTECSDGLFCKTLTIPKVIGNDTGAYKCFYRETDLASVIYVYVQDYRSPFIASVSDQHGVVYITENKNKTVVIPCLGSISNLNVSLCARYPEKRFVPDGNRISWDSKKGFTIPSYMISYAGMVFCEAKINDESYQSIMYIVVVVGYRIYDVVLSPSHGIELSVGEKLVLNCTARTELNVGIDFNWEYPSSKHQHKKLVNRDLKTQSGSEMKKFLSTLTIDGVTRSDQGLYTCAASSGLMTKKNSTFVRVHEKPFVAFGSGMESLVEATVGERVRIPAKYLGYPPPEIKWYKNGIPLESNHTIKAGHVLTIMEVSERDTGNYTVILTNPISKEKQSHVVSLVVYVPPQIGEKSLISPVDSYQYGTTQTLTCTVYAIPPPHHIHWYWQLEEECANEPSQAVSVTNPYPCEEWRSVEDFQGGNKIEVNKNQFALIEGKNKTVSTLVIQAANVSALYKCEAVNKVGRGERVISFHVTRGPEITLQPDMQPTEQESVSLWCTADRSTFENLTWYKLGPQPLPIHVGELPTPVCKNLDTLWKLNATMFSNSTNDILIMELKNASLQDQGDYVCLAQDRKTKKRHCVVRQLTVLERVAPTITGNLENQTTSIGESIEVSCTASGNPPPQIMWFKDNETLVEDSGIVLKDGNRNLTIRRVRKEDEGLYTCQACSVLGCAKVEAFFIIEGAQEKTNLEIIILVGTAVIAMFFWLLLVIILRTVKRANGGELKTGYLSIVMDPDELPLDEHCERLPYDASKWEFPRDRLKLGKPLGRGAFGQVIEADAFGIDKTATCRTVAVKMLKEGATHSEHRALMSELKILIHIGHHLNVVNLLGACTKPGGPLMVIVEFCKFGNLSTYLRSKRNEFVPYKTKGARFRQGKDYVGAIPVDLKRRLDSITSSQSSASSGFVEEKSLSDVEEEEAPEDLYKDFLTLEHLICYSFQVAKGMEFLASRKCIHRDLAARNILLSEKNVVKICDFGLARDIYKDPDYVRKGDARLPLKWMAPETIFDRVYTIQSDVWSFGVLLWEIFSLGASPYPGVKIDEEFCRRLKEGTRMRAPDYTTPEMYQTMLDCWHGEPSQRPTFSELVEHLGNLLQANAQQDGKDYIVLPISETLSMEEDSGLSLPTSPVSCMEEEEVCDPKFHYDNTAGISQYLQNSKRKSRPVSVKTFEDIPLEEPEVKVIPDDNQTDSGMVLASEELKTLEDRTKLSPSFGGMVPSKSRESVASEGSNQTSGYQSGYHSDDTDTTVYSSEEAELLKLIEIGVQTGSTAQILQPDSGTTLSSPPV
Chain of DMPK (human) (Q09013 whole entry, looked up): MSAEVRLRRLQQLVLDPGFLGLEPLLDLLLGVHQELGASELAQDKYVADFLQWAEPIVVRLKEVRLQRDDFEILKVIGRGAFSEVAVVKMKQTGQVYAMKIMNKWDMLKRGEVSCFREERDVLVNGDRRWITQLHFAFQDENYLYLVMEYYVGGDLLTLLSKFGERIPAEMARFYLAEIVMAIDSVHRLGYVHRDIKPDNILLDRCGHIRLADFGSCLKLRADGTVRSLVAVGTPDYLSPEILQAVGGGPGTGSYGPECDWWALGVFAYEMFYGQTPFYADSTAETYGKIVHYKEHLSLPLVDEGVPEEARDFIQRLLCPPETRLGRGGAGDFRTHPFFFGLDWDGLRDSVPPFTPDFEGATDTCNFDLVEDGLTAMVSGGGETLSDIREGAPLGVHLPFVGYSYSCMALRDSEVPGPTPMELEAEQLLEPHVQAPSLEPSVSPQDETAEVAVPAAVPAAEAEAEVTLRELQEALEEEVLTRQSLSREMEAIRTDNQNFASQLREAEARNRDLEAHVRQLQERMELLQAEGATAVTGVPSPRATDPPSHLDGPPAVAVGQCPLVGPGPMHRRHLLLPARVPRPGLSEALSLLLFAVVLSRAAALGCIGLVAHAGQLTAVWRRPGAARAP
Chain of PRKCQ (human) (Q04759 whole entry, looked up): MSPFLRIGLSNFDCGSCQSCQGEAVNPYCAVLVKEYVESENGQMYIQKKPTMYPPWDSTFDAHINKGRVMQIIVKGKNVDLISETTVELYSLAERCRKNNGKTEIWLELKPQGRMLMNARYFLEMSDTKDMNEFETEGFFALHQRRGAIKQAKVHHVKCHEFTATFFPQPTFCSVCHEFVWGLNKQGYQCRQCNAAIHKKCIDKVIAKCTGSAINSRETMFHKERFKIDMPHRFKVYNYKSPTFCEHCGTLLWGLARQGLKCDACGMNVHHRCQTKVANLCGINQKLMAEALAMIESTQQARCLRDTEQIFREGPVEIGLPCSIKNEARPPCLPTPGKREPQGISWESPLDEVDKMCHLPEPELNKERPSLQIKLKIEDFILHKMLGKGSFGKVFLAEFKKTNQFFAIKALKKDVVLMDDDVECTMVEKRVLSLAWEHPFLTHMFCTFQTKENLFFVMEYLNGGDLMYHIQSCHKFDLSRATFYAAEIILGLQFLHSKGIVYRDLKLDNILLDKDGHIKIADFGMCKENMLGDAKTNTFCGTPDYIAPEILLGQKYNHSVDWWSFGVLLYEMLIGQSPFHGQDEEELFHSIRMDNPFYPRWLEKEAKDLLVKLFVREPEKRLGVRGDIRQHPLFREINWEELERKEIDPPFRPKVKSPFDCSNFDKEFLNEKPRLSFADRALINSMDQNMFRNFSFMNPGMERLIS
Chain of RPS6KA2 KD1 (human) (Q15349 whole entry, looked up): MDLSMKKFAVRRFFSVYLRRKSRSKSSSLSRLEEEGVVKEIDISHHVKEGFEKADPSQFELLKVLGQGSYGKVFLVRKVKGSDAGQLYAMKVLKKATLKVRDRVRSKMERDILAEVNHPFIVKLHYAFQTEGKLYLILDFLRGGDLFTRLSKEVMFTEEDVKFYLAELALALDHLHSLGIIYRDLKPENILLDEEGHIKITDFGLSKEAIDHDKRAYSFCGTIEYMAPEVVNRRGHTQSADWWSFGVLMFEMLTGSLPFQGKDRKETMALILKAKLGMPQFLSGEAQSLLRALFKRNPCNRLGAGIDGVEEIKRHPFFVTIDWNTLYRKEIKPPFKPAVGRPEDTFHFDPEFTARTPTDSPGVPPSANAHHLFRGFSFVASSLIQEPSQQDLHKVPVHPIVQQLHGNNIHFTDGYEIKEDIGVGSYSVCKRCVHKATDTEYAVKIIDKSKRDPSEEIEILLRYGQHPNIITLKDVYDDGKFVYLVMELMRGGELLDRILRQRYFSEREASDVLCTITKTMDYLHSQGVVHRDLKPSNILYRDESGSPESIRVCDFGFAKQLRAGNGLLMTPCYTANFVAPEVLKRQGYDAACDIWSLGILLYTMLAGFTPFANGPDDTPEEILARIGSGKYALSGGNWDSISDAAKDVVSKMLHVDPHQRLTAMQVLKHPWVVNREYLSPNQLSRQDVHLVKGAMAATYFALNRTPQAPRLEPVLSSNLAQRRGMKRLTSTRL

SMILES	kinase still bound, per cent of control [1] [%]	kinase still bound, per cent of control [2] [%]	kinase still bound, per cent of control [3] [%]	kinase still bound, per cent of control [4] [%]	kinase still bound, per cent of control [5] [%]	kinase still bound, per cent of control [6] [%]	kinase still bound, per cent of control [7] [%]	kinase still bound, per cent of control [8] [%]	kinase still bound, per cent of control [9] [%]	kinase still bound, per cent of control [10] [%]	kinase still bound, per cent of control [11] [%]	kinase still bound, per cent of control [12] [%]	kinase still bound, per cent of control [13] [%]	kinase still bound, per cent of control [15] [%]	kinase still bound, per cent of control [16] [%]	kinase still bound, per cent of control [17] [%]	kinase still bound, per cent of control [18] [%]	kinase still bound, per cent of control [19] [%]	kinase still bound, per cent of control [20] [%]	kinase still bound, per cent of control [21] [%]	other results
C=CC(=O)Nc1cc(-n2c(=O)ccc3cnc4ccc(-c5cn[nH]c5)cc4c32)ccc1C	100	0.1	12	53	50	100	43	100	87	82	45	100	59	29	60	100	73	72	70	100	kinase still bound, per cent of control [14]: 24%; kinase still bound, per cent of control [22]: 100%; kinase still bound, per cent of control [23]: 33%; kinase still bound, per cent of control [24]: 51%; kinase still bound, per cent of control [25]: 83%; kinase still bound, per cent of control [26]: 81%; kinase still bound, per cent of control [27]: 49%; kinase still bound, per cent of control [28]: 87%; kinase still bound, per cent of control [29]: 100%; kinase still bound, per cent of control [30]: 99%; kinase still bound, per cent of control [31]: 86%; kinase still bound, per cent of control [32]: 100%; kinase still bound, per cent of control [33]: 92%; kinase still bound, per cent of control [34]: 100%; kinase still bound, per cent of control [35]: 67%; kinase still bound, per cent of control [36]: 69%; kinase still bound, per cent of control [37]: 22%; kinase still bound, per cent of control [38]: 100%; kinase still bound, per cent of control [39]: 88%; kinase still bound, per cent of control [40]: 58%
N#CCNC(=O)c1ccc(-c2ccnc(Nc3ccc(N4CCOCC4)cc3)n2)cc1	100	66	68	56	99	100	100	2.2	13	100	36	9.4	37	98	85	100	89	100	7	96	kinase still bound, per cent of control [22]: 77%; kinase still bound, per cent of control [23]: 60%; kinase still bound, per cent of control [24]: 67%; kinase still bound, per cent of control [25]: 100%; kinase still bound, per cent of control [26]: 73%; kinase still bound, per cent of control [27]: 51%; kinase still bound, per cent of control [28]: 76%; kinase still bound, per cent of control [29]: 100%; kinase still bound, per cent of control [30]: 11%; kinase still bound, per cent of control [31]: 100%; kinase still bound, per cent of control [32]: 62%; kinase still bound, per cent of control [33]: 55%; kinase still bound, per cent of control [34]: 87%; kinase still bound, per cent of control [35]: 100%; kinase still bound, per cent of control [36]: 100%; kinase still bound, per cent of control [37]: 32%; kinase still bound, per cent of control [38]: 100%; kinase still bound, per cent of control [39]: 94%; kinase still bound, per cent of control [40]: 100%
